# Test results published in the NIST ThermoML archive (doi:10.1016/j.jct.2011.11.032).
# ± gives the expanded uncertainty stated by the source.
# Assay: molar enthalpy of vaporization or sublimation
# Conditions: 298.15 K; Liquid; Static calorimetry
row,Structure (SMILES),molar enthalpy [kcal/mol]
1,"COc1cccc(OC)n1 [2,6-dimethoxypyridine]",12.9 ± 0.239
2,COc1ccccn1 [2-methoxypyridine],10.8 ± 0.311
3,COc1ccncc1 [4-methoxypyridine],13.7 ± 0.311
